Values joined by “and” are separate entries in the source; they are usually repeats but may differ in a detail not shown here. Equal entries are not always repeated. Where two headings read alike, the source gives them in different places.
Assays:
human α-thrombin = human α-thrombin (Homo sapiens, UniProt P00734); assay: Protease inhibition, Ki for human α-thrombin (fluorogenic substrate Z-Gly-Gly-Arg-AMC); type: biochemical; details: for Human alpha thrombin inhibition, slope normalized to DMSO: replicates R1-R3
Method: (§1) The inhibition constants (Ki) of cyclic peptides were calculated by measuring thrombin inhibition in the presence of different concentrations of the cyclic peptides. […] Human α-thrombin (Molecular Innovations) and rat α-thrombin (Molecular Innovations) were used at final concentrations of 2 nM and 3 nM, respectively, and fluorogenic substrate (Z-Gly-Gly-Arg-AMC, Bachem) was used at a concentration of 50 μM. Enzymatic activity was determined by measuring fluorescent gain on a Tecan Infinite M200 Pro microplate reader (excitation: 360 nm, emission: 465 nm) or a PHERAstar FSX microplate reader (excitation: 380 nm, emission: 440 nm) for 30 min at 25 °C with a fluorescent readout every 3 min. The two instruments were controlled with Tecan Infinite M200 Pro instrument software (iControl, version 1.12) and PHERAstar FSX software (version 5.70, edition 8), respectively. Protease inhibition was calculated by comparing the enzymatic activity to a control without cyclic peptide.
(§2) Half maximal inhibitory concentration (IC50) values were determined using a four-parameter logistic regression model in GraphPad Prism 9 to fit sigmoidal curves to the acquired data points according to equation (2) below.2 y=b+a−b/1+10^(logIC50−x)p where a and b represent the measured inhibition maximum and minimum, respectively; x is the logarithm of peptide concentration; y is the thrombin activity compared to a control without the cyclic peptide; and p is the Hill coefficient.
(§3) Ki values were calculated using the IC50 and the Cheng–Prusoff equation (equation (3)).3 Ki=IC50/1+S0/Km where Km is the Michaelis–Menten constant of the enzyme for the substrate used in the assay, and [S]0 is the initial substrate concentration.

rat α-thrombin = target: T1, rat α-thrombin (Rattus norvegicus, UniProt P18292); assay: Protease inhibition, Ki for rat α-thrombin (fluorogenic substrate Z-Gly-Gly-Arg-AMC); type: biochemical; details: for Rat alpha thrombin inhibition, slope normalized to DMSO: replicates R1-R3
T1 construct: rat α-thrombin (Molecular Innovations) were used at final concentrations of 2 nM and 3 nM; purchased Molecular Innovations
Method: as §1, §2, §3

[1] = Passive artificial membrane permeability (PAMPA);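 for Permeability% Average: top well sample relative to theoretical equilibrium sample by TIC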
[2] = peptide concentration 1.00E+02 uM
[3] = peptide concentration 1.19E-05 uM
[4] = peptide concentration 1.22E-02 uM
[5] = peptide concentration 1.25E+01 uM
[6] = peptide concentration 1.53E-03 uM
[7] = peptide concentration 1.56E+00 uM
[8] = peptide concentration 1.91E-04 uM
[9] = peptide concentration 1.95E-01 uM
[10] = peptide concentration 2.38E-05 uM
[11] = peptide concentration 2.44E-02 uM
[12] = peptide concentration 2.50E+01 uM
[13] = peptide concentration 3.05E-03 uM
[14] = peptide concentration 3.12E+00 uM
[15] = peptide concentration 3.81E-04 uM
[16] = peptide concentration 3.91E-01 uM
[17] = peptide concentration 4.77E-05 uM
[18] = peptide concentration 4.88E-02 uM
[19] = peptide concentration 5.00E+01 uM
[20] = peptide concentration 6.10E-03 uM
[21] = peptide concentration 6.25E+00 uM
[22] = peptide concentration 7.63E-04 uM
[23] = peptide concentration 7.81E-01 uM
[24] = peptide concentration 9.54E-05 uM
[25] = peptide concentration 9.77E-02 uM

Ki (human α-thrombin; average of R1-R3, read-out: Human alpha thrombin inhibition, Ki Average): 4.24 µM | Human alpha thrombin inhibition, slope normalized to DMSO (human α-thrombin; [2]): 7.2 and 18.3 and 14.2 | Human alpha thrombin inhibition, slope normalized to DMSO (human α-thrombin; [3]): 106.2 and 105.2 and 96.5 | Human alpha thrombin inhibition, slope normalized to DMSO (human α-thrombin; [4]): 97.4 and 143.9 and 87.6 | Human alpha thrombin inhibition, slope normalized to DMSO (human α-thrombin; [5]): 39.9 and 42.6 and 31.3 | Human alpha thrombin inhibition, slope normalized to DMSO (human α-thrombin; [6]): 107.6 and 85.1 and 100.8 | Human alpha thrombin inhibition, slope normalized to DMSO (human α-thrombin; [7]): 63.5 and 67.4 and 86.8 | Human alpha thrombin inhibition, slope normalized to DMSO (human α-thrombin; [8]): 94.4 and 101.9 and 82.4 | Human alpha thrombin inhibition, slope normalized to DMSO (human α-thrombin; [9]): 80.8 and 88.6 and 87.2 | Human alpha thrombin inhibition, slope normalized to DMSO (human α-thrombin; [10]): 104.6 and 100.1 and 103.6 | Human alpha thrombin inhibition, slope normalized to DMSO (human α-thrombin; [11]): 87.3 and 61.5 and 110.7 | Human alpha thrombin inhibition, slope normalized to DMSO (human α-thrombin; [12]): 18.7 and 30.4 and 26.6 | Human alpha thrombin inhibition, slope normalized to DMSO (human α-thrombin; [13]): 107.4 and 96.1 and 108.0 | Human alpha thrombin inhibition, slope normalized to DMSO (human α-thrombin; [14]): 66.3 and 72.5 and 68.3 | Human alpha thrombin inhibition, slope normalized to DMSO (human α-thrombin; [15]): 108.2 and 71.6 and 89.8 | Human alpha thrombin inhibition, slope normalized to DMSO (human α-thrombin; [16]): 98.6 and 87.2 and 97.0 | Human alpha thrombin inhibition, slope normalized to DMSO (human α-thrombin; [17]): 102.6 and 101.4 and 90.5 | Human alpha thrombin inhibition, slope normalized to DMSO (human α-thrombin; [18]): 86.2 and 70.0 and 72.9 | Human alpha thrombin inhibition, slope normalized to DMSO (human α-thrombin; [19]): 22.0 and 20.2 and 22.5 | Human alpha thrombin inhibition, slope normalized to DMSO (human α-thrombin; [20]): 107.1 and 94.4 and 65.9 | Human alpha thrombin inhibition, slope normalized to DMSO (human α-thrombin; [21]): 53.3 and 30.4 and 58.6 | Human alpha thrombin inhibition, slope normalized to DMSO (human α-thrombin; [22]): 101.4 and 104.3 and 107.6 | Human alpha thrombin inhibition, slope normalized to DMSO (human α-thrombin; [23]): 93.7 and 88.2 and 91.3 | Human alpha thrombin inhibition, slope normalized to DMSO (human α-thrombin; [24]): 107.7 and 104.4 and 105.3 | Human alpha thrombin inhibition, slope normalized to DMSO (human α-thrombin; [25]): 100.1 and 100.4 and 85.5 | IC50 (human α-thrombin; single replicates R1-R3, read-out: Human alpha thrombin inhibition, IC50): 6.06 µM and 4.33 µM and 6.11 µM | Ki (rat α-thrombin; average of R1-R3, read-out: Rat alpha thrombin inhibition, Ki Average): 1190 nM | Rat alpha thrombin inhibition, slope normalized to DMSO (rat α-thrombin; [2]): 8.6 and 7.4 and 11.4 | Rat alpha thrombin inhibition, slope normalized to DMSO (rat α-thrombin; [3]): 107.5 and 103.5 and 101.6 | Rat alpha thrombin inhibition, slope normalized to DMSO (rat α-thrombin; [4]): 107.3 and 99.3 and 79.0 | Rat alpha thrombin inhibition, slope normalized to DMSO (rat α-thrombin; [5]): 23.0 and 17.3 and 19.0 | Rat alpha thrombin inhibition, slope normalized to DMSO (rat α-thrombin; [6]): 108.1 and 101.8 and 103.2 | Rat alpha thrombin inhibition, slope normalized to DMSO (rat α-thrombin; [7]): 38.0 and 68.3 and 64.4 | Rat alpha thrombin inhibition, slope normalized to DMSO (rat α-thrombin; [8]): 111.1 and 96.6 and 97.0 | Rat alpha thrombin inhibition, slope normalized to DMSO (rat α-thrombin; [9]): 80.3 and 102.2 and 95.7 | Rat alpha thrombin inhibition, slope normalized to DMSO (rat α-thrombin; [10]): 106.4 and 99.5 and 91.3 | Rat alpha thrombin inhibition, slope normalized to DMSO (rat α-thrombin; [11]): 104.4 and 97.3 and 93.2 | Rat alpha thrombin inhibition, slope normalized to DMSO (rat α-thrombin; [12]): 14.0 and 11.2 and 8.1 | Rat alpha thrombin inhibition, slope normalized to DMSO (rat α-thrombin; [13]): 71.4 and 100.8 and 98.3 | Rat alpha thrombin inhibition, slope normalized to DMSO (rat α-thrombin; [14]): 53.4 and 47.3 and 48.9 | Rat alpha thrombin inhibition, slope normalized to DMSO (rat α-thrombin; [15]): 103.9 and 95.9 and 106.5 | Rat alpha thrombin inhibition, slope normalized to DMSO (rat α-thrombin; [16]): 72.4 and 80.6 and 86.0 | Rat alpha thrombin inhibition, slope normalized to DMSO (rat α-thrombin; [17]): 110.4 and 101.0 and 101.1 | Rat alpha thrombin inhibition, slope normalized to DMSO (rat α-thrombin; [18]): 95.5 and 75.4 and 93.2 | Rat alpha thrombin inhibition, slope normalized to DMSO (rat α-thrombin; [19]): 9.4 and 9.6 and 8.3 | Rat alpha thrombin inhibition, slope normalized to DMSO (rat α-thrombin; [20]): 86.0 and 97.7 and 122.2 | Rat alpha thrombin inhibition, slope normalized to DMSO (rat α-thrombin; [21]): 35.0 and 30.8 and 29.6 | Rat alpha thrombin inhibition, slope normalized to DMSO (rat α-thrombin; [22]): 106.2 and 91.0 and 101.5 | Rat alpha thrombin inhibition, slope normalized to DMSO (rat α-thrombin; [23]): 51.1 and 75.3 and 70.4 | Rat alpha thrombin inhibition, slope normalized to DMSO (rat α-thrombin; [24]): 108.0 and 102.0 and 103.8 | Rat alpha thrombin inhibition, slope normalized to DMSO (rat α-thrombin; [25]): 101.3 and 96.8 and 84.0 | IC50 (rat α-thrombin; single replicates R1-R3, read-out: Rat alpha thrombin inhibition, IC50): 1340 nM and 2670 nM and 2440 nM | PAMPA permeability: % permeability ([1]; 50 μM, 12–18 h, acceptor concentration relative to equilibrium): 70 ± 4% | Permeability% (single replicates R1–R3) ([1]; 50 μM, 13 h (Fig. 5d)): 73.98% and 66.95% and 68.74% | Permeability% Average ([1]; 50 μM, 13 h (Fig. 5d)): 69.9% | Papp at 50 μM ([1]; PAMPA, pH 7.4): 11.5 ×10⁻⁶ cm/s
Structure (SMILES): O=C1C[C@H]2CCCN2C(=O)[C@H](Cc2ccccc2)NC(=O)[C@@H](NC(=O)c2ccc(Cl)s2)CCC=CCCN1 [compound 39]
Ki (human α-thrombin; single replicates R1-R3, read-out: Human alpha thrombin inhibition, Ki): 4.67 µM (2×) and 3.34 µM (2×) and 4.71 µM (2×) | Ki (rat α-thrombin; single replicates R1-R3, read-out: Rat alpha thrombin inhibition, Ki): 741 nM (2×) and 1.48 µM (2×) and 1.35 µM (2×)

From paper PMC11062899, “De novo development of small cyclic peptides that are orally bioavailable” (Nature Chemical Biology, 2023)
